Measurements reported in ChEMBL document CHEMBL1158660, “Potential anticancer agents. XIV. Isolation of spruceanol and montanin from Cunuria spruceana (Euphorbiaceae)” (1979).
Converted amounts (≈) assume the structure as drawn.

System: P388
Test: Cytotoxicity against mouse P388 cells
Assay type: functional
Settings: read-out: ED50 (the source's name)

SMILES | EC50
C=C(C)[C@]12C[C@@H](C)[C@@]34O[C@](CCCCCCCCCCC)(O[C@@H]1[C@@H]3[C@@H]1O[C@]1(CO)[C@@H](O)[C@]1(O)C(=O)C(C)=C[C@H]14)O2 [MONTANIN] | 0.06 µg/mL (≈ 0.107 µM)
C=Cc1c(C)c(O)cc2c1CC[C@@H]1C(C)(C)[C@H](O)CC[C@@]21C [SPRUCEANOL] | 3.2 µg/mL (≈ 10.7 µM)
